In patent US20210361715A1, “USE OF EXOSOME DERIVED FROM MESENCHYMAL STEM CELLS CO-CULTURED WITH MELATONIN IN PREVENTION AND TREATMENT OF CHRONIC KIDNEY DISEASE” (STEM BIO CO., LTD., priority 2020, published 2021):

Columns and labels:
[1] = system: cellular prion protein (PrPC); type: cell-based, human; conditions: healthy and CKD patient MSCs treated with melatonin; ELISA; FIGS. 4B, 4C
[2] = system: miR-4516; assay: miRNA / miR-4516 expression by RNA microarray and qPCR in MSCs and exosomes; type: cell-based, human; conditions: healthy MSCs and CKD-MSCs treated with melatonin; qPCR; FIG. 4F

SMILES: COc1ccc2[nH]cc(CCNC(C)=O)c2c1 [melatonin]
- expression of prion proteins present in the exosomes extracted from stem cells [1]: increases
- expression level of miR-4516 in stem cells [2]: increase
